In publication PMC10442743 (Dalton Transactions (Cambridge, England : 2003), 2023):
Like-named read-outs stand apart in the source and are kept apart here.

What was measured:
[1] = test system: 14-mer ssDNA (DNA, single strand) ATACATGGTACATA; experiment: ESI tandem mass spectrometry; conditions: MilliQ water pH 7, 37 °C, 24 h; compound:DNA 3:1 mixed; adduct seen as [Ru(toluene)(PPh3)]2+; non-covalent
[2] = test system: 6-mer dsDNA (DNA, duplex) AGGCAG/CTGCCT; experiment: ESI tandem mass spectrometry; conditions: MilliQ water pH 7, 37 °C, 3:1 mixed; 24 h or 72 h (ESI); non-covalent
[3] = test system: L929; experiment: MTT cytotoxicity assay, L929 fibroblasts (and selectivity index); format: cell-based, mouse; conditions: for SI (selectivity index): IC50 L929 divided by average IC50 of the breast cancer cell lines; for IC50: MTT
Description: (§1) The cytotoxicity of 1–11CA was assessed against human breast cancer MCF-7 and MDA-MB-231 cells, and non-tumorigenic adherent mouse fibroblast connective tissue L929 cells using the MTT assay after 24 and 72 h (Tables S5 ^† and Table 1, respectively).
(§2) Then, necessary dilutions were made using the supplement DMEM, to prepare the range of tested concentrations. Since DMSO was used to solubilize the compounds, a supplemented DMEM + DMSO (at the same percentage as in the sequential dilutions) was considered as a control in the 3-[4,5-dimetylthiazole-2-yl]-2,5-diphenyltetrazolium bromide (MTT) assay.
(§3) L929, MCF-7, and MDA-MB-231 cell lines were cultured in DMEM supplemented with 10% (v/v) FBS and 1% (v/v) of penicillin–streptomycin. The cells were incubated in a humidified chamber at 37 °C under saturated air with a 5% CO2 atmosphere. Cells were passed at 80%–90% of confluency with 0.25% (w/v) trypsin and the cell culture media was changed every 2–3 days.
(§4) The compounds were tested on two breast cancer cell lines (MCF-7 and MDA-MB-231) and L929 fibroblasts, used as a reference for the safety evaluation according to ISO 10993-1:2009 “Biological evaluation of medical devices”. Cells were seeded on sterile 96-well plates at 50 000 cells per well (L929) and 20 000 cells per well (MCF-7 and MDA-MB-231) in supplemented DMEM medium (100 μL) for 24 h. The culture medium was removed and new media containing different concentrations of the compounds (0–1000 μM) was added to the wells (100 μL). Control cells were incubated under the same conditions in the absence of a compound. Cells were incubated for 24 and 72 h under the same conditions described above. Then, the medium was removed, and the cells were incubated with 3-(4,5-dimethylthiazol-2-yl)-2,5-diphenyltetrazolium bromide (MTT; 0.5 mg mL^−1) for 3 h. After this time, the medium was removed, and formazan crystals were solubilized with DMSO (100 μL per well). The absorbance in each well was read on a SynergyTM HT Multimode microplate reader (BioTek Instruments; Winooski, VT, USA) at 570 and 630 nm (for background correction), and the cell viability was calculated according to the following equation (eqn (1)):1 [drawing 3] where OD570(sample) and OD630(sample) are the optical densities of the solutions containing the compounds and OD570(control) and OD630(control) are controls without compound.
(§5) Each apoptosis value determination represents the mean ± standard deviation of 2 independent assays. The IC50 values were obtained using GraphPad Prism software and ANOVA (analysis of variance) was performed to determine the statistical difference between the IC50 values of different cell lines.

[4] = test system: MCF-7; experiment: MTT cytotoxicity assay, MCF-7 cells; format: cell-based, human; conditions: MTT
Description: as §1, §2, §3, §4, §5

[5] = n-octanol/water; ESI ref 13; cited from earlier work
[6] = test system: MDA-MB-231; experiment: MTT cytotoxicity assay, MDA-MB-231 cells; format: cell-based, human; conditions: MTT
Description: as §1, §2, §3, §4, §5

[7] = Solubility in water (ICP-MS); conditions: 25 °C, limit of detection = 5 ppt
[8] = test system: MDA-MB-231; experiment: FITC Annexin V / 7-AAD apoptosis assay, MDA-MB-231; format: cell-based, human; conditions: 24 h at 24 h IC50 dose
Description: Apoptosis in MCF-7 and MDA-MB-231 cells was determined using FITC Annexin V with a 7-aminoactinomycin D (7-AAD) staining kit (BioLegend®, California, US) according to the manufacturer's instructions. […] Following incubation, the cells were washed with PBS twice and detached using 0.25% trypsin. After obtaining cell pellets by centrifugation (300g for 5 min), the cells were resuspended in 100 μL of PBS, followed by the addition of 10 μL of FITC Annexin V and 7-AAD, and then incubated for 15 min at room temperature while protected from light. After the incubation period, 200 μL of binding buffer was added to the cell suspension and the samples were analyzed immediately using a BD Accuri C6 flow cytometer with a minimum of 10 000 events. The assays were performed in quadruplicate and the results were analyzed with Accuri C6 analysis software.
as §5, with “Each cell viability result represents the mean ± standard deviation (SD) for n = 4 replicates in each of 3 independent assays, resulting in 12 independent values. Each” for “Each”

[9] = Stability in solution (ESI-MS, NMR); conditions: 100% d6-DMSO, 1 mM, 72 h
Description: The stability of 11CA under pseudo-physiological conditions was assessed using ESI-MS and ^1H and ^31P NMR spectroscopy.
Stability studies were performed on 11CA over 72 h at 37 °C.
The stability of 11Cl was also monitored over
72 h via 1H and 31P NMR spectroscopy. The complex was fully dissolved in d6-DMSO,
diluted with D2O to reach 10% d6-DMSO in D2O (1 mM final concentration) and, finally,
the pD was adjusted to 7.2 ± 0.1 (neutral conditions). Furthermore, the stability of 11Cl
and 11BPh4 was also assessed in 100% d6-DMSO (1 mM final concentration) as a highly

[10] = n-octanol/water partition coefficient (shake-flask, ICP-MS)
Description: The saturated solutions were filtered
(DigiPREP Jr. 15ml, 40 Pos, SCP Science). The digestion program was the following: 15
After the digestion, the sample
Samples were further diluted
range. All measurements were performed in triplicates.
lipophilicity of a compound. This assay was performed following the Shake-flask method
organic and aqueous phase. Aliquots of each phase were taken and analyzed separately
range. The partition coefficient was calculated as P!"=
respectively. All measurements were performed in triplicates.

[11] = Molar conductivity in acetonitrile; format: physicochemical; conditions: 1 mM in acetonitrile, 25 °C
Description: The molar conductivity (ΛM, reported as S·cm2·mol–1) of solutions of 11CA in acetonitrile (1 mM) were measured in a Radiometer Copenhagen CDM92 equipped with a conductivity cell CDC641T glass platinum electrode at room temperature (25 °C). The conductivity of the pure solvent was used as standard controls.
Table S3. Solubility in water at 25 °C, n-octanol/water partition coefficient and molar conductivity of the 11CA. * below limit of detection = 5 ppt.

[12] = test system: ct-DNA; conditions: cited from earlier work
[13] = test system: ctDNA; experiment: Circular dichroism / induced circular dichroism with calf thymus DNA; conditions: DNA
Description: Calf thymus (ct) DNA (Merck®) was used to perform the circular dichroism assay to detect conformational changes in the ctDNA induced by the compounds. CD spectral data was collected on a Chirascan™ V100 (Applied Photophysics) spectropolarimeter equipped with a large area Avalanche photodiodes detector and computer-controlled thermoelectrical cell holder using a 1 cm path length quartz cuvette. CD spectra of ctDNA in the absence and presence of different concentrations of 11Cl were recorded at wavelengths ranging from 320 to 190 nm under constant nitrogen flush at 25 °C. For each CD spectrum, the number of scans was set to 5, and spectral data were collected at 0.1 ms intervals. Additionally, methyl green (MG) and 4′,6-diamidino-2-phenylindole (DAPI), and propidium iodide (PI) were analyzed as minor and major groove binders and as an intercalator, respectively, to help identify the binding mode of 11Cl to DNA. Samples were prepared in 10 mM Tris-HCl buffer (pH 7.6) with 1 mM EDTA. The concentration of ctDNA was fixed at 100 μM (concerning base pairs) and the ctDNA to 11Cl ratio was varied between 0 and 1. The samples were incubated for 24 h at 37 °C and then analyzed in the CD spectropolarimeter.

[14] = test system: MDA-MB-231; conditions: read-out: cytotoxicity (IC50) MDA-MB-231, cited from earlier work
[15] = test system: MCF-7; conditions: read-out: cytotoxicity (IC50) MCF-7, cited from earlier work
[16] = 24 h exposure, read-out: IC50 (µM) (average ± standard deviation) 24 h L929
[17] = 72 h exposure, read-out: IC50 (μM) (average ± standard deviation) 72 h L929
[18] = 24 h exposure, read-out: IC50 (µM) (average ± standard deviation) 24 h MCF-7
[19] = 72 h exposure, read-out: IC50 (μM) (average ± standard deviation) 72 h MCF-7
[20] = 24 h exposure, read-out: IC50 (µM) (average ± standard deviation) 24 h MDA-MB-231
[21] = 72 h exposure, read-out: IC50 (μM) (average ± standard deviation) 72 h MDA-MB-231

SMILES | SI (selectivity index) ([3]; 24 h) | IC50 [3, 16] [µM] | SI (selectivity index) ([3]; 72 h) | IC50 [3, 17] [µM] | IC50 [4, 18] [µM] | IC50 [4, 19] [µM] | IC50 [6, 20] [µM] | IC50 [6, 21] [µM] | Solubility (μM) [7] | Solubility (μg/mL) [7] | average apoptosis percentage, MDA-MB-231 cells [8] [%] | further results
Cc1ccccc1.[Cl-].[Ru+2].c1ccc(P(c2ccccc2)c2ccccc2)cc1.c1ccc(P(c2ccccc2)c2ccccc2)cc1 | – | – | – | – | – | – | – | – | – | – | – | binding [1]: yes; binding [2]: yes
Cc1ccccc1.[Cl][Ru]([Cl])[PH]12CN3CN(CN(C3)C1)C2 [Compound 4] | 1.7 | 723 ± 29 | 1.0 | 79 ± 4 | 474 ± 19 | 68 ± 7 | 384 ± 16 | 83 ± 4 | – | – | – | LogPow [5]: −1.5
Cc1ccc(C(C)C)cc1.[Cl][Ru]([Cl])[PH]12CN3CN(CN(C3)C1)C2 [Compound 5] | 1.2 | 612 ± 30 | 1.3 | 84 ± 4 | 526 ± 19 | 57 ± 5 | 497 ± 12 | 71 ± 4 | – | – | – | LogPow [5]: > −1.8
Cc1cccc[c]1[Ru+]([Cl])([PH]12CN3CN(CN(C3)C1)C2)[PH](c1ccccc1)(c1ccccc1)c1ccccc1.F[P-](F)(F)(F)(F)F (stereo not shown) [Compound 10] | 0.6 | 74 ± 5 | 10.5 | 31 ± 3 | 128 ± 30 | 3.1 ± 0.2 | 113 ± 14 | 2.8 ± 0.2 | 547 ± 117 µM | 475 ± 102 µg/mL | 41 | –
Cc1cccc[c]1[Ru+]([Cl])([PH](c1ccccc1)(c1ccccc1)c1ccccc1)[PH](c1ccccc1)(c1ccccc1)c1ccccc1.c1ccc([B-](c2ccccc2)(c2ccccc2)c2ccccc2)cc1 [Compound 11BPh4] | 0.8 | 59 ± 5 | 3.5 | 3.9 ± 0.3 | 51 ± 5 | 0.52 ± 0.06 | 100 ± 8 | 1.7 ± 0.3 | below LOD | below LOD | 33 | stability in DMSO (NMR) [9]: No changes were observed; LogPow [10]: > 3.5; Conductivity (molar conductivity) [11]: 71 S·cm2/mol
Cc1cccc[c]1[Ru+]([Cl])([PH](c1ccccc1)(c1ccccc1)c1ccccc1)[PH](c1ccccc1)(c1ccccc1)c1ccccc1.O=S(=O)([O-])C(F)(F)F [Compound 11OTf] | 1.5 | 5.8 ± 0.7 | 1.8 | 1.8 ± 0.2 | 4 ± 1 | 0.6 ± 0.07 | 4 ± 2 | 1.4 ± 0.1 | 1.1 ± 0.1 µM | 1.0 ± 0.1 µg/mL | 40 | LogPow [10]: 1.75 ± 0.18; Conductivity (molar conductivity) [11]: 173 S·cm2/mol
Cc1cccc[c]1[Ru+]([Cl])([PH](c1ccccc1)(c1ccccc1)c1ccccc1)[PH](c1ccccc1)(c1ccccc1)c1ccccc1.[F][Sb-]([F])([F])([F])([F])[F] [Compound 11SbF6] | 0.4 | 7 ± 0.4 | 12.8 | 1.35 ± 0.09 | 11 ± 2 | 0.08 ± 0.01 | 21 ± 2 | 0.131 ± 0.009 | below LOD | below LOD | 95 | LogPow [10]: 2.01 ± 0.07; Conductivity (molar conductivity) [11]: 186 S·cm2/mol
N=C(N)c1ccc(-c2cc3ccc(C(=N)N)cc3[nH]2)cc1 [DAPI] | – | – | – | – | – | – | – | – | – | – | – | Kprobe, binding constant of the probe to DNA ([12]; used in eqn (4) ref 92): 5e+06 M⁻¹; CD band 268 nm, intensity change ([13]; 268 nm part of the 268−280 nm band): Hyperchromic; CD band 280 nm, intensity change ([13]; 280 nm part of the 268−280 nm band): Hypochromic; CD band 210 nm, intensity change ([13]; 24 h, 37 °C): Hypochromic; CD band 210 nm, wavelength shift ([13]; 24 h, 37 °C): Red; CD band 220 nm (hydrogen bonding), intensity change ([13]; 24 h, 37 °C): Hyperchromic; CD band 220 nm (hydrogen bonding), wavelength shift ([13]; 24 h, 37 °C): Blue shift; CD band 246 nm (helicity), intensity change ([13]; 24 h, 37 °C): Unchanged; CD band 246 nm (helicity), wavelength shift ([13]; 24 h, 37 °C): Unchanged; CD band 268−280 nm (base-pair stacking interactions), wavelength shift ([13]; 24 h, 37 °C): Unchanged
CN(C)c1ccc(C(=C2C=CC(=[N+](C)C)C=C2)c2ccc([N+](C)(C)C)cc2)cc1.[Cl-].[Cl-] [MG, methyl green] | – | – | – | – | – | – | – | – | – | – | – | Kprobe, binding constant of the probe to DNA ([12]; used in eqn (4) ref 91): 900000 M⁻¹; CD band 210 nm, intensity change ([13]; 24 h, 37 °C): Hypochromic; CD band 210 nm, wavelength shift ([13]; 24 h, 37 °C): Blue; CD band 220 nm (hydrogen bonding), intensity change ([13]; 24 h, 37 °C): Hyperchromic; CD band 220 nm (hydrogen bonding), wavelength shift ([13]; 24 h, 37 °C): Blue shift; CD band 246 nm (helicity), intensity change ([13]; 24 h, 37 °C): Hypochromic; CD band 246 nm (helicity), wavelength shift ([13]; 24 h, 37 °C): Unchanged; CD band 268−280 nm (base-pair stacking interactions), intensity change ([13]; 24 h, 37 °C): Unchanged; CD band 268−280 nm (base-pair stacking interactions), wavelength shift ([13]; 24 h, 37 °C): Unchanged
N.N.O=C([O-])C1(C(=O)[O-])CCC1.[Pt+2] [carboplatin] | – | – | – | – | – | – | – | – | – | – | – | IC50 ([14]; literature value ref 44): 15.4 ± 3.3 µM; IC50 ([15]; literature value ref 43): 27.3 µM
N.N.[Cl][Pt][Cl] [cisplatin] | – | – | – | – | – | – | – | – | – | – | – | IC50 ([14]; literature value ref 42): 38.7 ± 0.03 µM; IC50 ([15]; literature value ref 41): 28 ± 6 µM
